# Read-outs that look alike come from different tables or passages of the source.
# Tests used:
# [1] = target: human E3 ligase component cereblon (CRBN) (Homo sapiens (Human), UniProt Q96SW2); test: Cereblon (CRBN) target engagement, NanoBRET TE Intracellular E3 Ligase Assay in transfected HEK-293T cells
# Experimental: HEK-293T cells were harvested ca. 75% confluent with trypsin and plated (500,000 cells/well) in a 6-well tissue culture plate in 2 mL of Dulbecco's Modified Eagle Medium (DMEM)^+10% Fetal Bovine Serum (FBS) and incubated overnight at 37° C.
# The NanoLue-CRBN fusion vector (Nluc-CRBN; Promega) contains the coding region of human E3 ligase component cereblon (CRBN) fused to the C-terminus of the NanoLuc luciferase coding region. A mixture of 10 ng Nluc-CRBN and 990 ng DDB1 Expression Vector (Promega) was added to 125 μL Opti-Minimum Essential Medium (Opti-MEM™; Thermo Fisher) along with 2 μL P3000 reagent (Thermo Fisher) in a 1.5 mL epppendorf tube. This solution was added to Lipofectamine 3000 transfection reagent (5 μL; Thermo Fisher) in Opti-MEM (125 μL), mixed well, and incubated for 15 minutes at room temperature. The transfection mixture was added dropwise to cells and incubated overnight at 37° C., 5% CO2. Following transfection, cells were washed once with PBS, and trypsin (250 μL) was added and incubated 30-45 see to dislodge cells. Complete media (2 mL) was added to resuspend cells to form a single cell suspension. Cells were centrifuged at 320×g for 5 min at room temperature, the supernatant was removed, and the cell pellet resuspended in Opti-MEM (3 mL; wash step repeated ×2). After final resuspension in 5 mL Opti-MEM, cells were counted and resuspended at 200,000 cells/mL in Opti-MEM.
# Cereblon target engagement was monitored by Bioluminescence Resonance Energy Transfer (BRET) in transfected HEK-293T cells using the NanoBRET TE Intracellular E3 Ligase Assay (Promega). Briefly, 384-well plates (white opaque plates, Corning 3574, low binding surface) were seeded with transfected HEK-293T cells (38 μl/well). 2 μL of 10 μM CRBN tracer (diluted 1:5 in Tracer Dilution Buffer) was added to each well. Plates were centrifuged at 320×g for 1 min at room temperature. […] Plates were shaken for 2 minutes on a microplate shaker to mix compounds. Plates were centrifuged at 320×g for 1 min at room temperature, and subsequently incubated for 2 hours at 37° C.
# After incubation, plates were allowed to cool to room temperature for 15 minutes. 20 μL of 3X Complete NanoBRET™ Nano-Glo® Substrate plus Inhibitor Solution (Promega, 1:166 Substrate and 1:500 dilution of Extracellular NanoLuc® Inhibitor diluted in Opti-MEM) were added to each well, Plates were incubated with shaking at room temperature for 3 minutes covered with foil. Plates were read on a CLARIOstar microplate reader (BMG LabTech), measuring at 450 nm (donor emission) and 610 nm (acceptor emission). The IC50 values were determined by regression to best fit four-parameter logistic curves using GraphPad Prism.
# [2] = target: IKZF3 (Aiolos) (Homo sapiens (Human), UniProt Q96SW2+Q9UKT9); test: IKZF3 reporter degradation assay (HEK 293T IKZF3-mNeonGreen reporter cell line); assay type: cell-based; conditions: HEK 293T reporter cells, 24 hour incubation
# Source text: (§1) Polycistronic plasmids were constructed for the mammalian expression of fluorescent reporter fusions of human transcription factors IKZF1 (Ikaros), IKZF2 (Helios), and IKZF3 (Aiolos). The respective protein sequences had their C-terminal end joined to a GGGGS linker repeated three times followed by mNeonGreen, P2A sequence, and mScarlet. The DNA sequences of the open reading frames are as follows:
# (§2) IKZF1, IKZF2, and IKZF3 constructs were cloned into the UCOE Hygromycin expression vectors (Millipore Sigma). Reporter constructs were transfected using cationic lipid reagents into adherent HEK 293T cells and stable integrants were selected by treatment with 200 μg/mL hygromycin B. Clonal populations were obtained from the population of stable integrants either by limiting dilution or fluorescence activated cell sorting.
# (§3) The clonal stable cell lines were maintained under constant 200 μg/mL hygromycin B selection while being passaged for use in the degradation assays. […] The fluorescence intensity of the IKZF1/2/3-mNeonGreen (FITC channel) and mScarlet (PE channel) reporters were routinely analyzed by flow cytometry to confirm consistent expression levels between experiments.
# (§4) The IKZF1/IKZF2/IKZF3 degradation assays were carried out by harvesting the HEK 293T reporter cell lines and resuspending the cells in media formulated for reduced background fluorescence (FluoroBrite; Thermo Fisher). The respective cell lines were seeded at a density of 4000 cells/well into black-walled 384-well optical grade assay tissue culture plates. The cells were incubated overnight at 37° C. to allow for attachment to the assay plate. Dilutions of the compounds were prepared in DMSO from 10 mM compound stocks. The assay plates were treated with appropriate concentrations of the compounds by dispensing the DMSO dilutions in quadruplicate wells with an upper limit of 0.5% final DMSO.
# (§5) After 24 hour incubation with the compounds, the assay plates were imaged on an ImageXpress Pico microscopy system (cells maintained at 37° C. during imaging) to obtain the fluorescent readouts. The assay plates were imaged in the FITC and Tetramethylrhodamine (TRITC) channels to obtain the mNeonGreen fluorescence intensity (reporter degradation data) and mScarlet fluorescence intensity (for cell segmentation). 293T-IKZF1 and 293T-IKZF3 reporter cell lines were imaged with exposures of 500 milliseconds (ms) for both FITC and TRITC channels, while the 293T-IKZF2 reporter cell line was imaged with exposures of 1000 ms for FITC and 1250 ms for TRITC. The resulting data was analyzed with Cell Reporter Xpress software using the 2-channel cell scoring analysis with a “percent positive” readout. The TRITC channel was selected for the “nuclei” segmentation with a threshold of 20 while the FITC channel was selected for the “Marker 1” segmentation and a threshold of 100 for the IKZF and IKZF3 reporter lines. […] The minimum segmentation width was set to 6 micrometers and the maximum segmentation width was set to 15 micrometers for all cell lines. The DC50 calculations were determined by regression to best fit four-parameter logistic curves using GraphPad Prism.
# [3] = target: IKZF2 (Helios) (Homo sapiens (Human), UniProt Q96SW2+Q9UKS7); test: IKZF2 reporter degradation assay (HEK 293T IKZF2-mNeonGreen reporter cell line); assay type: cell-based; conditions: 24 hour incubation; for inhibition at 1 µM: HEK-293T, 24 h
# Source text: as §1, §2, §3, §4, §5
# [4] = Table 3, 2 hours at 37° C., read-out: CRBN Binding EC50
# [5] = second (untitled) table after Table 3, read-out: CRBN Binding EC50
# [6] = Table 3, HEK 293T reporter cells
# [7] = second (untitled) table after Table 3
# Chain of IKZF2 (Helios) (Q9UKS7 whole entry): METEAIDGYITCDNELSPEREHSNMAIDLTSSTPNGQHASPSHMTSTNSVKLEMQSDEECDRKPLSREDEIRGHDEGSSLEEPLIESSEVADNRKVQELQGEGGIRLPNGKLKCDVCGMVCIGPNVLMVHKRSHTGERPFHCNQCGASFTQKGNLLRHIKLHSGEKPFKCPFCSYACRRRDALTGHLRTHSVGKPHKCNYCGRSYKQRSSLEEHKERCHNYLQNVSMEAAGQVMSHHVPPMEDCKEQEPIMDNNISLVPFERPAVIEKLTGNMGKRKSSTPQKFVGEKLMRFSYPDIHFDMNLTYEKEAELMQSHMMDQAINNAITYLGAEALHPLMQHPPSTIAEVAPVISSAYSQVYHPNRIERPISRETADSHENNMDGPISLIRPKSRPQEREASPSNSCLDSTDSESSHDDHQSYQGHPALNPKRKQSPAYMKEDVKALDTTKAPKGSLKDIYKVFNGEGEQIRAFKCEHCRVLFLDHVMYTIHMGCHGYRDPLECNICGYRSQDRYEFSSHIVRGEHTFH
# Chain of IKZF2 (Helios) (Q96SW2 whole entry): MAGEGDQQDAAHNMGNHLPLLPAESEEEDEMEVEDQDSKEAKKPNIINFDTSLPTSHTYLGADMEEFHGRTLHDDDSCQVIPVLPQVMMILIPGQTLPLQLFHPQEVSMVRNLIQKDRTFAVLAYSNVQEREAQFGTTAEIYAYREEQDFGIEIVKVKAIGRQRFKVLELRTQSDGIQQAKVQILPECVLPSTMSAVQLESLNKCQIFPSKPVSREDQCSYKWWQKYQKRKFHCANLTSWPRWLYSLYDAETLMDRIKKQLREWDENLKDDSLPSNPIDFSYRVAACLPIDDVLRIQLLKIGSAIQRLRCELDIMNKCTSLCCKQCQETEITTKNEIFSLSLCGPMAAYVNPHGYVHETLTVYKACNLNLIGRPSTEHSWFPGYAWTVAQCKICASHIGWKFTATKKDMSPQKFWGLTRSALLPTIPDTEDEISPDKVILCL
# Chain of IKZF2 (Helios) (Q16531 whole entry partner): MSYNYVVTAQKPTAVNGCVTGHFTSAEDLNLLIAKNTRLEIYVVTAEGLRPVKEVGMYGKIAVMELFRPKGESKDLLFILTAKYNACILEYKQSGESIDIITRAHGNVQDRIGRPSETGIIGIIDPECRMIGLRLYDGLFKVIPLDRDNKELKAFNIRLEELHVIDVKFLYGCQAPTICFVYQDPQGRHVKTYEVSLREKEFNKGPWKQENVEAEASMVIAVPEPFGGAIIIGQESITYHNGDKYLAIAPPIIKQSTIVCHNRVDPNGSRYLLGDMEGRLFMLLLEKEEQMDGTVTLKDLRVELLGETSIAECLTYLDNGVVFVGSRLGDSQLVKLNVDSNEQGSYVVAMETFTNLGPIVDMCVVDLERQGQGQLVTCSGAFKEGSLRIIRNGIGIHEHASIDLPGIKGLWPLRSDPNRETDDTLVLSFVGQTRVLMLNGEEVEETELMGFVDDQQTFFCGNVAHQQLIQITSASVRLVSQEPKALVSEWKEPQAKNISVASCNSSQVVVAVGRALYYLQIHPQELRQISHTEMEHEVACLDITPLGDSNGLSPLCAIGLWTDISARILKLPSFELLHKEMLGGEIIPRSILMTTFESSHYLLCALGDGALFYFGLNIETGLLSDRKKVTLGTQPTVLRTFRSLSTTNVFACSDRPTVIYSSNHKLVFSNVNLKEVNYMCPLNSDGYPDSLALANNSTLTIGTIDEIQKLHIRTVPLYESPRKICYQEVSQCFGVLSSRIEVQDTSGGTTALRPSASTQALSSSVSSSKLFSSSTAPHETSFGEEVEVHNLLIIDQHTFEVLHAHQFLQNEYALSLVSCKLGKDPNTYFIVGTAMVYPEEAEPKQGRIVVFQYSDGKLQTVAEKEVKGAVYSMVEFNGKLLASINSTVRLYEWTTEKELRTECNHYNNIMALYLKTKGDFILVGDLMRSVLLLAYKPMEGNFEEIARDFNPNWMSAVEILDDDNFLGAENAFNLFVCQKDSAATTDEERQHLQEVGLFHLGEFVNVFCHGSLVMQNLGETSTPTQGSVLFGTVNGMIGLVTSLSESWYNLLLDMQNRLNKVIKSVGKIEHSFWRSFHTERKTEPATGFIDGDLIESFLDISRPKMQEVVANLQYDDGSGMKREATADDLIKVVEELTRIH
# Chain of human E3 ligase component cereblon (CRBN) (Q96SW2 whole entry): as the sequence (Q96SW2 whole entry) above
# Chain of human E3 ligase component cereblon (CRBN) (Q16531 whole entry partner): as the sequence (Q16531 whole entry partner) above
# Chain of IKZF3 (Aiolos) (Q9UKT9 whole entry, the tested form may be a part): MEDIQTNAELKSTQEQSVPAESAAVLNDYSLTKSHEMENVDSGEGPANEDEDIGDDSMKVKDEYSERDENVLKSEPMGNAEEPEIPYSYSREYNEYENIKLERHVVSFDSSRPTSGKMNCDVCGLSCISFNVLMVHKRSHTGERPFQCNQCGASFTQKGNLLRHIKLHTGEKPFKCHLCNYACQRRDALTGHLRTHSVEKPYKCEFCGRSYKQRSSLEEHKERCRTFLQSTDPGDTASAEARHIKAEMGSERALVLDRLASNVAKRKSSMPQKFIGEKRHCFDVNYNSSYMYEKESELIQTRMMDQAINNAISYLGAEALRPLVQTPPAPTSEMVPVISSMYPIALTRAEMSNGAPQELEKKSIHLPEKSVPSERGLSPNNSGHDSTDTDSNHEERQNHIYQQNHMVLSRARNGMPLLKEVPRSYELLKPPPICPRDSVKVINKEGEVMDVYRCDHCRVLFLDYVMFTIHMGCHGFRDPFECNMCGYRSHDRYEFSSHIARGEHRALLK
# Chain of IKZF3 (Aiolos) (Q96SW2 whole entry, the tested form may be a part): as the sequence (Q96SW2 whole entry) above
# Chain of IKZF3 (Aiolos) (Q16531 whole entry partner, the tested form may be a part): as the sequence (Q16531 whole entry partner) above
Structure (SMILES),"EC50 [1, 4]","EC50 [1, 5]",DC50 [2],DC50 ([3]; HEK 293T reporter cells),"inhibition at 1 µM [3, 6]","inhibition at 1 µM [3, 7]","IKZF2% Degradation @ 1 μM [3, 6]","IKZF2% Degradation @ 1 μM [3, 7]",IKZF3% Degradation @ 1 μM ([2]; 1 μM)
"O=C1CCC(N2Cc3cc(O[C@H]4CCCC[C@@H]4N4CC(C5CCCCC5)C4)ccc3C2=O)C(=O)N1 (stereo partly drawn) [Compound 1, 3-(5-(((1S,2S)-2-(3-cyclohexylazetidin-1-yl)cyclohexyl)oxy)-1-oxoisoindolin-2-yl)piperidine-2,6-dione]",3 nM,3 nM,> 30000 nM,4 nM,85.1%,85.1%,,,
"O=C1CCC(N2Cc3cc(O[C@H]4CCCC[C@@H]4N4CC(C5CCC(F)(F)CC5)C4)ccc3C2=O)C(=O)N1 (stereo partly drawn) [Compound 2, 3-(5-(((1S,2S)-2-(3-(4,4-difluorocyclohexyl)azetidin-1-yl)cyclohexyl)oxy)-1-oxoisoindolin-2-yl)piperidine-2,6-dione]",2 nM,2 nM,> 30000 nM,3 nM,74.6%,74.6%,,,
"O=C1CCC(N2Cc3cc(O[C@H]4CCCC[C@@H]4N4CC(C5CC5)C4)ccc3C2=O)C(=O)N1 (stereo partly drawn) [Compound 3, 3-(5-(((1S,2S)-2-(3-cyclopropylazetidin-1-yl)cyclohexyl)oxy)-1-oxoisoindolin-2-yl)piperidine-2,6-dione]",9 nM,9 nM,> 30000 nM,12 nM,67.7%,67.7%,,,
"O=C1CCC(N2Cc3cc(O[C@H]4CCCC[C@@H]4N4CC(C5CCC5)C4)ccc3C2=O)C(=O)N1 (stereo partly drawn) [Compound 5, 3-(5-(((1S,2S)-2-(3-cyclobutylazetidin-1-yl)cyclohexyl)oxy)-1-oxoisoindolin-2-yl)piperidine-2,6-dione]",9 nM,9 nM,> 30000 nM,4 nM,85%,85%,,,
"O=C1CCC(N2Cc3cc(O[C@H]4CCCC[C@@H]4N4CC(C5CCCC5)C4)ccc3C2=O)C(=O)N1 (stereo partly drawn) [Compound 6, 3-(5-(((1S,2S)-2-(3-cyclopentylazetidin-1-yl)cyclohexyl)oxy)-1-oxoisoindolin-2-yl)piperidine-2,6-dione]",5 nM,5 nM,> 30000 nM,3 nM,86.3%,86.3%,,,
"O=C1CCC(N2Cc3cc(O[C@H]4CCC[C@@H]4N4CC(C5CCC(F)(F)CC5)C4)ccc3C2=O)C(=O)N1 (stereo partly drawn) [Compound 13, 3-(5-(((1S,2S)-2-(3-(4,4-difluorocyclohexyl)azetidin-1-yl)cyclopentyl)oxy)-1-oxoisoindolin-2-yl)piperidine-2,6-dione]",5 nM,5 nM,> 30000 nM,5 nM,75.9%,75.9%,,,
"CC(C)OC1CCC(C2CN([C@H]3CCCC[C@@H]3Oc3ccc4c(c3)CN(C3CCC(=O)NC3=O)C4=O)C2)CC1 (stereo partly drawn) [Compound 16, 3-(5-(((1S,2S)-2-(3-((cis)-4-isopropoxycyclohexyl)azetidin-1-yl)cyclohexyl)oxy)-1-oxoisoindolin-2-yl)piperidine-2,6-dione]",2 nM,2 nM,> 30000 nM,1 nM,95.5%,95.5%,,,
"CC(C)OC1CCC(C2CN([C@H]3CCCC[C@@H]3Oc3ccc4c(c3)CN(C3CCC(=O)NC3=O)C4=O)C2)CC1 (stereo partly drawn) [Compound 17, 3-(5-(((1S,2S)-2-(3-((trans)-4-isopropoxycyclohexyl)azetidin-1-yl)cyclohexyl)oxy)-1-oxoisoindolin-2-yl)piperidine-2,6-dione]",1 nM,1 nM,> 30000 nM,1 nM,,,96.7%,96.7%,
"O=C1CCC(N2Cc3cc(O[C@H]4CCCC[C@@H]4N4CC(C5CC(F)(F)C5)C4)ccc3C2=O)C(=O)N1 (stereo partly drawn) [Compound 18, 3-(5-(((1S,2S)-2-(3-(3,3-difluorocyclobutyl)azetidin-1-yl)cyclohexyl)oxy)-1-oxoisoindolin-2-yl)piperidine-2,6-dione]",12 nM,12 nM,> 30000 nM,29 nM,71.1%,95.8%,,,
"CCOC1CCC(C2CN([C@H]3CCCC[C@@H]3Oc3ccc4c(c3)CN(C3CCC(=O)NC3=O)C4=O)C2)CC1 (stereo partly drawn) [Compound 19, 3-(5-(((1S,2S)-2-(3-(4-ethoxycyclohexyl)azetidin-1-yl)cyclohexyl)oxy)-1-oxoisoindolin-2-yl)piperidine-2,6-dione]",1 nM,1 nM,> 30000 nM,2 nM,72.8%,72.8%,,,
"O=C1CCC(N2Cc3cc(O[C@H]4CCCC[C@@H]4N4CC(C5CCCC(F)(F)C5)C4)ccc3C2=O)C(=O)N1 (stereo partly drawn) [Compound 20, 3-(5-(((1S,2S)-2-(3-(3,3-difluorocyclohexyl)azetidin-1-yl)cyclohexyl)oxy)-1-oxoisoindolin-2-yl)piperidine-2,6-dione]",4 nM,4 nM,> 30000 nM,3 nM,85%,85%,,,
"O=C1CCC(N2Cc3cc(O[C@H]4CCCC[C@@H]4N4CC(C5CCC(OC(F)F)CC5)C4)ccc3C2=O)C(=O)N1 (stereo partly drawn) [Compound 21, 3-(5-(((1S,2S)-2-(3-(4-(difluoromethoxy)cyclohexyl)azetidin-1-yl)cyclohexyl)oxy)-1-oxoisoindolin-2-yl)piperidine-2,6-dione]",1 nM,1 nM,6 nM,2 nM,86.7%,86.7%,,,32.4%
